According to patent US20250296942A1, “Phosphonate-Based Coordination Complexes and Methods of Preparation and Use Thereof” (University of Puerto Rico, priority 2021, published 2025):

Columns and labels:
[1] = tested on: human breast cancer MDA-MB-231 cell line; assay: AlamarBlue cytotoxicity, BPBPA series, MDA-MB-231; type: cell-based; settings: for IC50: Homo sapiens
Description: (§1) Cell culture methods. MCF-7, MDA-MB-231, and hFOB 1.19 cell lines were incubated employing DMEM (37° C.) and DMEM: F12 (34° C.) medium, respectively, in a 5% CO2. Cell lines were supplemented using 10% FBS and 1% Pen-Strep and medium exchange was performed twice a week. Cell passages were carried out at 80% confluency.
(§2) Cell-based assays. Cell lines were seeded in 96 well plates at a density of 5×10^3 cells/mL, cells were incubated for 24 h before treatment. Both cell lines were treated with 100 μL of BPBPA (0-400 μM), LET (0-200 μM), unloaded and loaded nano-Ca@BPBPA (0-50 μM). All cell-based assays were performed for 24, 48, and 72 h of treatment. Control groups were treated with media (DMEM or DMEM: F12) supplemented with 1% Pen-Strep. Then, the media was removed and replaced with 100 μL of 10% AlamarBlue® solution. The 96 well plates were incubated for 4 h before measurements. Then, the fluorescence was assessed at 560 nm of excitation and λmax 590 nm of emission. The cell viability (%) was evaluated by contrasting the percentage of live cells of the control groups with the cells treated with BPBPA, LET, unloaded and loaded nano-Ca@BPBPA. The half-maximal inhibitory concentration (IC50) was determined for BPBPA and letrozole employing the dose-response curves (% cell live vs. concentration). The relative cell live (% RCL) was assessed for the unloaded and loaded nano-Ca@BPBPA, utilizing LET as a control group. The IC50 and % RCL were plotted using the GraphPad Prism software vs. 9.3.0.
(§3) The cytotoxicity of BPBPA (control), LET (control), nano-Ca@BPBPA (control), and drug-loaded nano-Ca@BPBPA (experimental) was investigated employing the human breast cancer, MCF-7 and MDA-MB-231, and the human osteoblast, hFOB 1.19, cell lines. The human MCF-7 cell line represents an ER-positive breast cancer model with estrogen, progesterone, and glucocorticoid receptors.^1 While, the human MDA-MB-231 cells correspond to a model of ER-negative breast cancer. Both selected cancer cell lines can be implicated in the development and progress of bone metastases in patients.^40,41 The human fetal hFOB 1.19 cells represent a homogeneous osteoblast-like (non-cancerous) model commonly employed to assess osteoblast differentiation.^42 The cytotoxicity of these materials was evaluated by determining the IC50 and % RCL. […] Similar results were found for MDA-MB-231 and hFOB 1.19 cell lines treated with LET (IC50 >200 μM) at the same time points (Supporting Information).
(§4) Cell culture methods. MCF-7 and MDA-MB-231 were incubated employing DMEM media at 37° C. in 5% CO2. The hFOB 1.19 cell lines were incubated using DMEM: F12 at 34° C. in 5% CO2. Cell lines were supplemented using 10% FBS and 1% Pen-Strep. The media was exchanged twice per week. Cell passages were carried out at 80% confluency.
(§5) Seeding. Cell lines were seeded in 96 well plates at a density of […] cells/mL; cells were incubated for 24 h before each treatment.
(§6) Treatment. Cell lines were treated with 100 μL of BPBPA (0-400 μM), LET (0-200 μM), unloaded and loaded nano-Ca@BPBPA (0.5-50 μM). Control groups were treated with media (DMEM or DMEM: F12) supplemented with 1% Pen-Strep. All cell-based assays were performed after 24, 48, and 72 h of treatment and in triplicate.
(§7) AlamarBlue@assay. To determine the cell viability, the media was removed and replaced with 100 μL of 10% AlamarBlue® solution. The 96 well plates were incubated for 4 h before measurements. Then, the fluorescence was assessed at 560 nm of excitation and λmax 590 nm of emission.

[2] = tested on: human breast cancer MCF-7 cell line; assay: AlamarBlue cytotoxicity, BPBPA series, MCF-7; type: cell-based
Description: as §1, §2, §3, §4, §5, §6, §7

[3] = Release of letrozole from drug-loaded 2,2′-BPBPA-Ca in FaSSGF; type: physicochemical; settings: 37° C., 150 rpm, duplicate
Description: LET release curve from 2,2′-BPBPA-Ca. The release curve of LET from 2,2′-BPBPA-Ca was assessed in FaSSGF. A calibration curve for LET in FaSSGF was previously prepared; the lambda max (λmax) was detected at 238 nm (Supporting Information). About 100 mL of FaSSGF were placed in a 250-mL beaker and left in constant stirring at 37° C. (150 rpm).
(§8) Subsequently, […] of powdered drug-loaded 2,2′-BPBPA-Ca (experimental) were placed into the FaSSGF solution. After each time point (0, 1, 3, 6, 24, 48, and 72 h), an aliquot (1 mL) was taken out and diluted in a 5 mL volumetric flask. An aliquot was taken out before adding the drug-loaded material to record the first time point (0 h). Then, the absorbance was measured at 238 nm to determine the amount (%) of LET release from the 2,2′-BPBPA-Ca.
TGA thermographs for these drug-loaded materials were collected to determine the amount of LET loaded into the channels of 2,2′-BPBPA and nano-Ca@2,2′-BPBPA (20-21%, FIG. 8B). Furthermore, the release capacity of these drug-loaded BPCCs was assessed in physiological conditions (FaSSGF, pH=1.60) at 37° C. The LET release from 2,2′-BPBPA-Ca was determined by measuring the absorption of the supernatant at the lambda max (λmax=[…]) and quantifying the increase in the LET concentration over time.
as §8, with “Release experiment. […] About 100 mL of FaSSGF were placed in a 250-mL beaker and left in constant stirring at 37° C. (150 rpm). Subsequently,” for “Subsequently,”, “2,2′-BPBPA-Ca. The release curve of LET (control) in FaSSGF was used for comparison.” for “2,2′-BPBPA-Ca.”

N#Cc1ccc(C(c2ccc(C#N)cc2)n2cncn2)cc1 [LET, letrozole]
% RCL ([1]; 12.5 μM, 72 h): 99±1% | % RCL ([1]; 50 μM, 24 h): ~86% | % RCL ([1]; 50 μM, 48 h): ~83% | % RCL ([1]; 50 μM, 72 h): ~82% | IC50 ([1]; 24 h): > 200 µM | IC50 ([1]; 48 h): > 200 µM | IC50 ([1]; 72 h): > 200 µM | % RCL ([2]; 0.5 μM, 24 h): ~100% | % RCL ([2]; 0.5 μM, 48 h): ~100% | % RCL ([2]; 0.5 μM, 72 h): 88±5% | % RCL ([2]; 1.6 μM, 72 h): 81% | % RCL ([2]; 3.1 μM, 24 h): 99±2% | % RCL ([2]; 3.1 μM, 48 h): 86±3% | % RCL ([2]; 3.1 μM, 72 h): 78±1% | % RCL ([2]; 6.3 μM, 24 h): 99±1% | % RCL ([2]; 6.3 μM, 72 h): 75±3% | % RCL ([2]; 12.5 μM, 72 h): 70±1% | IC50 ([2]; Homo sapiens, MCF7, 72 h): ~20 µM | Percentage (%) of letrozole (LET) released, Mean ([3]; 1 h): 65% | Percentage (%) of letrozole (LET) released, Mean ([3]; 3 h): 72% | Percentage (%) of letrozole (LET) released, Mean ([3]; 6 h): 75% | Percentage (%) of letrozole (LET) released, Mean ([3]; 24 h): 93% | Percentage (%) of letrozole (LET) released, Mean ([3]; 48 h): 94% | Percentage (%) of letrozole (LET) released, Mean ([3]; 72 h): 94%
